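Cultured in 96-well plates, cells were exposed to test compound for 48 hours across five concentrations. GI50 is the concentration that inhibits growth by half.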 Calls of active or inactive are those of the source. Cut-off read from the data, not from the text of the source: active = GI50 up to about 1.1 µM and inactive = higher.
What was measured:
Experiment in all cases: DTP human tumour cell line panel, 48 h
[1] = tested on: MCF7
[2] = tested on: OVCAR-3
[3] = tested on: SK-MEL-2
[4] = tested on: MDA-N
[5] = tested on: HOP-62
[6] = tested on: IGROV-1
[7] = tested on: SN12C
[8] = tested on: NCI/ADR-RES
[9] = tested on: Malme-3M
[10] = tested on: SK-OV-3
[11] = tested on: SW-620
[12] = tested on: MDA-MB-231
[13] = tested on: MDA-MB-435
[14] = tested on: OVCAR-4
[15] = tested on: SF-268
[16] = tested on: RXF 393
[17] = tested on: RPMI-8226
[18] = tested on: Hs-578T
[19] = tested on: HT-29
[20] = tested on: HOP-92

Measured: GI50

COC(=O)c1c(O)ccc2c1c1c(n2Cc2cc(OC)cc(OC)c2)C(=O)c2ccccc2C1
inactive: [1] 23.7 µM | [2] 43.2 µM | [3] 50.6 µM | [4] 10.8 µM | [5] > 100 µM | [6] 30.3 µM | [7] 29.5 µM | [8] 16.7 µM | [9] 68.5 µM | [10] 29 µM | [11] 51.8 µM | [12] 24 µM | [13] 10.9 µM | [14] 11.2 µM | [15] 31.1 µM | [16] 19.7 µM | [17] 7.82 µM | [18] 87.3 µM | [19] 11.7 µM

CSc1c(C(=O)Nc2ccc(C)cc2)c(N)nn1-c1ccccc1
inactive: [1] > 100 µM | [2] > 100 µM | [3] > 100 µM | [4] > 100 µM | [5] 57.7 µM | [6] 36.1 µM | [7] > 100 µM | [9] 19.9 µM | [10] 64.6 µM | [11] > 100 µM | [12] 40.6 µM | [13] > 100 µM | [14] 13 µM | [15] 46 µM | [20] 23.6 µM | [16] 26.4 µM | [17] > 100 µM | [18] 46.9 µM | [19] > 100 µM

SCCSCCCSCCS
inactive: [1] 70.8 µM | [2] 76.4 µM | [4] > 100 µM | [5] > 100 µM | [6] 49.2 µM | [7] > 100 µM | [8] > 100 µM | [10] > 100 µM | [11] > 100 µM | [12] 91.6 µM | [13] > 100 µM | [14] 14 µM | [15] > 100 µM | [19] > 100 µM

COC(=O)C1=C(O)C(C(=O)OC)[C@@]2(O)[C@@H](C(=O)OC)C(c3ccc(OC(=O)/C(=C/c4ccccc4)c4ccccc4)cc3)C[C@@H]1[C@@H]2C(=O)OC (some centres not stated)
inactive: [1] 10.5 µM | [2] 35.6 µM | [3] 14.9 µM | [4] 6.35 µM | [5] > 100 µM | [6] 19 µM | [7] 30.8 µM | [8] 44.2 µM | [9] > 100 µM | [10] > 100 µM | [11] 8.09 µM | [12] 23.9 µM | [13] 10.5 µM | [14] 16.9 µM | [15] 47.3 µM | [20] 14.4 µM | [16] 9.71 µM | [18] 27.7 µM | [19] 25.4 µM

NCCN/C(=N\c1ccccc1)Nc1ccccc1
inactive: [1] > 100 µM | [2] > 100 µM | [3] > 100 µM | [4] > 100 µM | [5] > 100 µM | [6] > 100 µM | [7] > 100 µM | [8] > 100 µM | [9] > 100 µM | [10] > 100 µM | [11] > 100 µM | [12] > 100 µM | [13] > 100 µM | [14] > 100 µM | [15] > 100 µM | [16] 24.3 µM | [17] > 100 µM | [18] > 100 µM | [19] > 100 µM

O=C1c2ccccc2C(=O)c2sc(Nc3ccccc3Cl)nc21
inactive: [1] 14.3 µM | [2] 10.7 µM | [3] 13.6 µM | [4] 2.41 µM | [5] 16.7 µM | [6] 13.9 µM | [7] 7.5 µM | [9] 14.2 µM | [10] 19.5 µM | [11] 4.15 µM | [12] 3.78 µM | [14] 8.18 µM | [15] 9.29 µM | [20] 13.2 µM | [16] 16.4 µM | [17] 3.68 µM | [18] 11.1 µM | [19] 21.5 µM

CCN(CC)C(=S)SNCCc1ccc(S(N)(=O)=O)cc1
inactive: [2] 18.9 µM | [3] 33.6 µM | [4] 18.3 µM | [5] 12.2 µM | [7] 14.2 µM | [8] 17.4 µM | [9] 12 µM | [10] 25.4 µM | [11] 14.1 µM | [12] 14.7 µM | [13] 14.7 µM | [14] 14.4 µM | [15] 15.6 µM | [20] 17.5 µM | [16] 7.57 µM | [17] 11.5 µM | [18] 19.5 µM | [19] 10.2 µM

Oc1ccccc1/C=N/c1ccc(-c2nc3ccccc3s2)cc1
inactive: [2] 20.6 µM | [3] 21.3 µM | [4] 29.6 µM | [5] 19.1 µM | [6] 28.2 µM | [7] 29.3 µM | [8] 25.6 µM | [9] 37.1 µM | [10] 27.2 µM | [11] 41.5 µM | [13] 26.6 µM | [14] 30.2 µM | [15] 23.2 µM | [20] 17.7 µM | [16] 28.5 µM | [17] 23.2 µM | [18] 30.7 µM | [19] 30.8 µM

CC(NC(=O)C(N)CC(=O)O)NC(=O)C1CCC1 (configuration not stated)
inactive: [1] > 100 µM | [2] > 100 µM | [3] > 100 µM | [4] > 100 µM | [5] > 100 µM | [6] > 10 µM | [7] > 100 µM | [8] > 100 µM | [9] > 100 µM | [10] 28.2 µM | [11] > 100 µM | [12] > 100 µM | [13] > 100 µM | [14] > 100 µM | [15] > 100 µM | [16] > 100 µM | [17] > 100 µM | [18] > 100 µM | [19] > 100 µM

O=S(=O)(SC1=NCCN1)c1cccc2ccccc12
inactive: [1] 30.9 µM | [2] 44 µM | [3] 23.7 µM | [4] 18.7 µM | [5] 31.3 µM | [6] 21.7 µM | [7] 23 µM | [8] 26.5 µM | [9] 32 µM | [10] 19.5 µM | [11] 32.7 µM | [12] 22.1 µM | [13] 29.6 µM | [14] 26.2 µM | [20] 36.8 µM | [16] 23.9 µM | [17] 19.1 µM | [19] 28.7 µM

COC(=O)C(Cc1ccc(OC)cc1O)NC(=O)OC(C)(C)C (configuration not stated)
inactive: [1] > 100 µM | [2] > 100 µM | [3] > 100 µM | [4] > 100 µM | [5] > 100 µM | [6] > 100 µM | [7] > 100 µM | [8] > 100 µM | [9] 78.5 µM | [10] > 100 µM | [11] > 100 µM | [12] > 100 µM | [13] > 100 µM | [14] > 100 µM | [15] > 100 µM | [16] > 100 µM | [18] > 100 µM | [19] > 100 µM

N#CCc1nc(Cc2ccccc2)n[nH]1
inactive: [1] > 100 µM | [2] > 100 µM | [3] > 100 µM | [4] > 100 µM | [5] > 100 µM | [6] > 100 µM | [7] > 100 µM | [8] > 100 µM | [9] > 100 µM | [10] > 100 µM | [11] > 100 µM | [12] > 100 µM | [13] > 100 µM | [14] > 100 µM | [15] > 100 µM | [20] > 100 µM | [16] > 100 µM | [18] > 100 µM | [19] > 100 µM

CC(=O)Oc1ccn2nc(C)c(Cc3c(C)nn4ccc(OC(C)=O)cc34)c2c1
inactive: [1] > 10 µM | [2] > 100 µM | [3] 34.6 µM | [4] > 10 µM | [5] 48 µM | [6] > 100 µM | [7] > 100 µM | [8] > 100 µM | [9] > 100 µM | [11] > 100 µM | [12] > 100 µM | [13] 25.1 µM | [14] > 100 µM | [15] > 100 µM | [20] > 100 µM | [18] 32.4 µM | [19] > 100 µM

C=C(O)c1ccccc1C#Cc1ccccc1C(=O)OC
inactive: [1] > 10 µM | [2] > 10 µM | [3] > 10 µM | [4] > 10 µM | [5] > 10 µM | [6] > 10 µM | [7] > 10 µM | [8] > 10 µM | [9] > 10 µM | [10] > 10 µM | [11] > 10 µM | [12] > 10 µM | [13] > 10 µM | [14] > 10 µM | [15] > 10 µM | [16] > 10 µM | [17] > 10 µM | [18] > 10 µM | [19] > 10 µM

CC(=O)C(=C(I)I)c1ccccc1
inactive: [1] 27.6 µM | [2] 16.7 µM | [3] 21.8 µM | [4] 15.2 µM | [5] 20.9 µM | [6] 26.1 µM | [7] 13.3 µM | [8] 21.1 µM | [9] 12.3 µM | [10] 41.9 µM | [11] 18.3 µM | [12] 22.3 µM | [13] 14.6 µM | [14] 16.1 µM | [15] 25.1 µM | [20] 37.2 µM | [16] 20 µM | [19] 17.9 µM

From ChEMBL document CHEMBL1201862, “PubChem BioAssay data set” (2004)
